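In this assay, cells in 96-well plates receive the compound at five concentrations for 48 hours. Endpoints are linearly interpolated between the surrounding concentrations. GI50: concentration for 50% inhibition of growth. TGI denotes the concentration required for complete inhibition of growth.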
What was measured:
Assay in all cases: NCI-60 cell line screen, 48 h
786-0 renal = system: 786-0 renal
A498 renal = system: A498 renal
A549 NSCLC = system: A549 NSCLC
ACHN renal = system: ACHN renal
BT-549 breast = system: BT-549 breast
CAKI-1 renal = system: CAKI-1 renal
CCRF-CEM leukemia = system: CCRF-CEM leukemia
COLO 205 colon = system: COLO 205 colon
DU-145 prostate = system: DU-145 prostate
EKVX NSCLC = system: EKVX NSCLC
HCC-2998 colon = system: HCC-2998 colon
HCT-116 colon = system: HCT-116 colon
HCT-15 colon = system: HCT-15 colon
HL-60(TB) leukemia = system: HL-60(TB) leukemia
HOP-62 NSCLC = system: HOP-62 NSCLC
HOP-92 NSCLC = system: HOP-92 NSCLC
HS 578T breast = system: HS 578T breast
HT29 colon = system: HT29 colon
IGROV1 ovarian = system: IGROV1 ovarian
K-562 leukemia = system: K-562 leukemia
KM12 colon = system: KM12 colon
LOX IMVI melanoma = system: LOX IMVI melanoma
M14 melanoma = system: M14 melanoma
MALME-3M melanoma = system: MALME-3M melanoma
MCF7 breast = system: MCF7 breast
MDA-MB-231 breast = system: MDA-MB-231 breast
MDA-MB-435 = system: MDA-MB-435
MOLT-4 leukemia = system: MOLT-4 leukemia
NCI-H226 lung = system: NCI-H226 lung
NCI-H23 lung = system: NCI-H23 lung
NCI-H460 lung = system: NCI-H460 lung
NCI-H522 lung = system: NCI-H522 lung
NCI/ADR-RES ovarian = system: NCI/ADR-RES ovarian
OVCAR-3 ovarian = system: OVCAR-3 ovarian
OVCAR-4 ovarian = system: OVCAR-4 ovarian
OVCAR-5 ovarian = system: OVCAR-5 ovarian
OVCAR-8 ovarian = system: OVCAR-8 ovarian
PC-3 prostate = system: PC-3 prostate
RPMI-8226 leukemia = system: RPMI-8226 leukemia
RXF 393 renal = system: RXF 393 renal
SF-268 CNS = system: SF-268 CNS
SF-295 CNS = system: SF-295 CNS
SF-539 CNS = system: SF-539 CNS
SK-MEL-2 melanoma = system: SK-MEL-2 melanoma
SK-MEL-28 melanoma = system: SK-MEL-28 melanoma
SK-MEL-5 melanoma = system: SK-MEL-5 melanoma
SK-OV-3 ovarian = system: SK-OV-3 ovarian
SN12C renal = system: SN12C renal
SNB-19 CNS = system: SNB-19 CNS
SNB-75 CNS = system: SNB-75 CNS
SR leukemia = system: SR leukemia
SW-620 colon = system: SW-620 colon
T-47D breast = system: T-47D breast
TK-10 renal = system: TK-10 renal
U251 CNS = system: U251 CNS
UACC-257 melanoma = system: UACC-257 melanoma
UACC-62 melanoma = system: UACC-62 melanoma
UO-31 renal = system: UO-31 renal

Structure (SMILES): c1ccc(OCC[P+](c2ccccc2)(c2ccccc2)c2ccccc2)cc1
- GI50 (786-0 renal): 5.15 µM
- TGI (786-0 renal): 20.8 µM
- GI50 (A498 renal): 3.53 µM
- TGI (A498 renal): 16.6 µM
- GI50 (A549 NSCLC): 2.96 µM
- TGI (A549 NSCLC): 82.5 µM
- GI50 (ACHN renal): 8.47 µM
- TGI (ACHN renal): > 81.9 µM
- GI50 (BT-549 breast): 1.65 µM
- TGI (BT-549 breast): 12 µM
- GI50 (CAKI-1 renal): 25.4 µM
- TGI (CAKI-1 renal): > 100 µM
- GI50 (CCRF-CEM leukemia): 0.981 µM
- TGI (CCRF-CEM leukemia): > 41.4 µM
- GI50 (COLO 205 colon): 0.549 µM
- TGI (COLO 205 colon): 2.02 µM
- GI50 (DU-145 prostate): 2.11 µM
- TGI (DU-145 prostate): 22.8 µM
- GI50 (EKVX NSCLC): 0.701 µM
- TGI (EKVX NSCLC): > 40.1 µM
- GI50 (HCC-2998 colon): 0.702 µM
- TGI (HCC-2998 colon): 12.9 µM
- GI50 (HCT-116 colon): 0.491 µM
- TGI (HCT-116 colon): 11.3 µM
- GI50 (HCT-15 colon): 12 µM
- TGI (HCT-15 colon): > 100 µM
- GI50 (HL-60(TB) leukemia): 0.275 µM
- TGI (HL-60(TB) leukemia): 1.45 µM
- GI50 (HOP-62 NSCLC): 1.41 µM
- TGI (HOP-62 NSCLC): 11.1 µM
- GI50 (HOP-92 NSCLC): 0.312 µM
- TGI (HOP-92 NSCLC): 3.06 µM
- GI50 (HS 578T breast): 2.27 µM
- TGI (HS 578T breast): 16.5 µM
- GI50 (HT29 colon): 0.308 µM
- TGI (HT29 colon): 10.9 µM
- GI50 (IGROV1 ovarian): 0.905 µM
- TGI (IGROV1 ovarian): 11.8 µM
- GI50 (K-562 leukemia): 0.743 µM
- TGI (K-562 leukemia): > 85.5 µM
- GI50 (KM12 colon): 1.31 µM
- TGI (KM12 colon): 8.84 µM
- GI50 (LOX IMVI melanoma): 0.926 µM
- TGI (LOX IMVI melanoma): 9.68 µM
- GI50 (M14 melanoma): 1.57 µM
- TGI (M14 melanoma): 9.59 µM
- GI50 (MALME-3M melanoma): 1.48 µM
- TGI (MALME-3M melanoma): 12.9 µM
- GI50 (MCF7 breast): 1.24 µM
- TGI (MCF7 breast): 11.1 µM
- GI50 (MDA-MB-231 breast): 2.44 µM
- TGI (MDA-MB-231 breast): 23.9 µM
- GI50 (MDA-MB-435): 0.433 µM
- TGI (MDA-MB-435): 4.31 µM
- GI50 (MOLT-4 leukemia): 3.89 µM
- TGI (MOLT-4 leukemia): 27.2 µM
- GI50 (NCI-H226 lung): 2.03 µM
- TGI (NCI-H226 lung): 12.1 µM
- GI50 (NCI-H23 lung): 0.938 µM
- TGI (NCI-H23 lung): 6.7 µM
- GI50 (NCI-H460 lung): 1.35 µM
- TGI (NCI-H460 lung): 10.4 µM
- GI50 (NCI-H522 lung): 0.335 µM
- TGI (NCI-H522 lung): 3.74 µM
- GI50 (NCI/ADR-RES ovarian): > 66.1 µM
- TGI (NCI/ADR-RES ovarian): > 100 µM
- GI50 (OVCAR-3 ovarian): 1.11 µM
- TGI (OVCAR-3 ovarian): 7.69 µM
- GI50 (OVCAR-4 ovarian): 0.66 µM
- TGI (OVCAR-4 ovarian): 9.44 µM
- GI50 (OVCAR-5 ovarian): 2.66 µM
- TGI (OVCAR-5 ovarian): 20.6 µM
- GI50 (OVCAR-8 ovarian): 1.54 µM
- TGI (OVCAR-8 ovarian): 15 µM
- GI50 (PC-3 prostate): 0.535 µM
- TGI (PC-3 prostate): 11.6 µM
- GI50 (RPMI-8226 leukemia): 0.187 µM
- TGI (RPMI-8226 leukemia): 2.14 µM
- GI50 (RXF 393 renal): 4.19 µM
- TGI (RXF 393 renal): 16 µM
- GI50 (SF-268 CNS): 2.05 µM
- TGI (SF-268 CNS): 13.5 µM
- GI50 (SF-295 CNS): 2.05 µM
- TGI (SF-295 CNS): 15.7 µM
- GI50 (SF-539 CNS): 1.89 µM
- TGI (SF-539 CNS): 13.1 µM
- GI50 (SK-MEL-2 melanoma): 1.06 µM
- TGI (SK-MEL-2 melanoma): 10.8 µM
- GI50 (SK-MEL-28 melanoma): 1.24 µM
- TGI (SK-MEL-28 melanoma): 9.81 µM
- GI50 (SK-MEL-5 melanoma): 0.416 µM
- TGI (SK-MEL-5 melanoma): 1.56 µM
- GI50 (SK-OV-3 ovarian): 2.08 µM
- TGI (SK-OV-3 ovarian): 8.16 µM
- GI50 (SN12C renal): 1.94 µM
- TGI (SN12C renal): 16.4 µM
- GI50 (SNB-19 CNS): 1.39 µM
- TGI (SNB-19 CNS): 15.1 µM
- GI50 (SNB-75 CNS): 0.721 µM
- TGI (SNB-75 CNS): 5.99 µM
- GI50 (SR leukemia): 2.31 µM
- TGI (SR leukemia): 12.3 µM
- GI50 (SW-620 colon): 1.76 µM
- TGI (SW-620 colon): 11.8 µM
- GI50 (T-47D breast): 0.265 µM
- TGI (T-47D breast): 2.4 µM
- GI50 (TK-10 renal): 1.73 µM
- TGI (TK-10 renal): 14.5 µM
- GI50 (U251 CNS): 0.99 µM
- TGI (U251 CNS): 13 µM
- GI50 (UACC-257 melanoma): 0.425 µM
- TGI (UACC-257 melanoma): 5.41 µM
- GI50 (UACC-62 melanoma): 0.678 µM
- TGI (UACC-62 melanoma): 8.99 µM
- GI50 (UO-31 renal): 16.9 µM
- TGI (UO-31 renal): > 79 µM
